# Measurements published in PubChem BioAssay (NCI).
#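 A five-concentration, 48-hour dose response in 96-well plates underlies each endpoint, interpolated linearly between surrounding concentrations. GI50: concentration for 50% inhibition of growth. TGI is the concentration that stops growth completely.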
# System: MDA-MB-468 breast
# Experiment: NCI anticancer screen, dose series, 48 h
SMILES,GI50 [nM],TGI [nM]
COc1cc(OC)c(C(=O)/C=C/c2cccc(OC(C)=O)c2)cc1CC=C(C)C,1890,9720
N#C/C(=C\c1ccc(Br)cc1)n1nnc2ccccc21,566,2220
CCCN(CCSSCCNc1nc(N(C)O)nc(N(C)O)n1)c1nc(N(C)O)nc(N(C)O)n1,2150,8860
CC(C)Nc1ncc2cc(Oc3ccc(F)cc3F)c(=O)n(C)c2n1,> 23000,> 25000
C#C[C@]1(O)CC[C@H]2[C@@H]3CC=C4c5sc(N6CCN(C)CC6)nc5CC[C@]4(C)[C@H]3CC[C@@]21C,2260,7600
Cn1c(=O)c(Oc2ccccc2)cc2cnc(NC3CCOCC3)nc21,> 25000,> 25000
COc1ccc(-c2csc(NC(=O)c3cc(O)c(O)c(O)c3)n2)cc1,6940,29500
Cc1cn(-c2cc(NC(=O)c3cncc(C#Cc4cnc5ccc(O[C@@H]6CCOC6)nn45)c3)cc(C(F)(F)F)c2)cn1,99.8,432
O=C(Nc1ccccc1)Nc1cccc(Oc2nnc(Cl)c3ccccc23)c1,1680,7580
COc1ccc2c(c1)/C(=C/c1cc(OC)c(OC)c(OC)c1)C(=O)N2C,14600,> 100000
Cc1cc2cn3c4cccnc4[nH]c(=O)c3c2cc1C,1390,2830
CN1CCN(c2ccc(C(=O)Nc3cc(-c4cccc(NS(=O)(=O)c5ccccc5)c4)[nH]n3)cc2)CC1,4840,14000
COc1ccc2c(c1)C1(C(=O)N2)C(C#N)=C(c2ccccc2)Nc2c1c(-c1ccccc1)nn2-c1ccccc1 (stereo not drawn),2930,9050
Oc1ccc(C#CCOc2ccccc2)cc1CNCCN(Cc1ccccn1)Cc1ccccn1,1730,4170
Cc1[nH]nc2c1N=C(c1ccccc1Cl)c1cc([N+](=O)[O-])ccc1N2,242,> 16800
CCOC(=O)c1cc(C(=O)c2cc(OC)c(OC)c(OC)c2)n2ccccc12,93.9,89600
Clc1ccc(Nc2ccnc(NCCCNc3ccnc4cc(Cl)ccc34)n2)cc1,1490,3050
CNCCCNCCCN1C(=O)c2ccc3c4c(ccc(c24)C1=O)C(=O)N(CCCNCc1ccccc1OC)C3=O,1000,2770
NC1=Nc2cc(OCCCN3Cc4ccccc4C3)c(OCC3CC3)cc2C12CCCC2,1040,2480
CCNCCCn1c2c(c3ccc([N+](=O)[O-])cc3c1=O)C(=O)c1cc(OC)cnc1-2,41.6,210
C=C1C(=O)O[C@H]2[C@H]1CC/C(COC(=O)c1ccccc1)=C\CC[C@@]1(C)O[C@@H]21,464,2590
C=C1C(=O)O[C@H]2[C@H]1CC/C(Cn1cc(-c3cc(C)c(C)cc3C)nn1)=C\CC[C@@]1(C)O[C@@H]21,530,2060
NC(=O)c1ccc2nc3c(n2c1)C(=O)C(=O)c1ccccc1-3,587,1920
Nc1ccccc1NC(=O)c1ccc(NC(=O)C/C=C/c2cccnc2)cn1,982,13300
C[C@H](N)C(=O)N1C[C@H](CCCB(O)O)[C@](N)(C(=O)O)C1,> 100000,> 100000
Nc1ncnc2c1cnn2Cc1ccc(Cl)cc1,44700,> 100000
CN(C)CCCn1c2nc(=O)[nH]c(=O)c-2nc2cc(Cl)c(Cl)cc21,772,2130
O=C(COc1cccc(/C=C2\CSc3ccccc3C2=O)c1)c1ccc(Cl)cc1,1500,3450
OCc1ccc(N(CCN2CCCC2)Cc2ccc(F)cc2)cc1Cl,1200,3280
